Data published in PubChem BioAssay AID330 (DTP/NCI, 2004).
Several values for one entry are separate records, joined by “and”; a condition that tells them apart may be missing. Identical values can stand only once. Toxic doses and inconclusive results are not listed. How the source made its calls: active means survival T/C of 150% or more; inactive means T/C below 125% in these data.

Tested on: P388 leukemia ip, CD2F1 mice, survival T/C
Assay: NCI In Vivo Anticancer Drug Screen. Data for tumor model P388 Leukemia (intraperitoneal) in CD2F1 (CDF1) mice
Conditions: endpoint: median survival time, higher = longer survival
Outline: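 Mice carrying the transplanted tumor received test compound or vehicle. Survival was recorded in each group, and the value is the treated-group measurement divided by that of the vehicle-treated control group.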

[1] = dose: 50.0 mg/kg/injection, schedule: Q01DX009 (ip), vehicle: saline with Tween-80
[2] = dose: 100.0 mg/kg/injection, schedule: Q01DX009 (ip), vehicle: saline with Tween-80
[3] = dose: 200.0 mg/kg/injection, schedule: Q01DX009 (ip), vehicle: saline with Tween-80
[4] = dose: 25.0 mg/kg/injection, schedule: Q01DX009 (ip), vehicle: saline with Tween-80
[5] = dose: 400.0 mg/kg/injection, schedule: Q01DX009 (ip), vehicle: saline with Tween-80
[6] = dose: 60.0 mg/kg/injection, schedule: Q01DX005 (ip), vehicle: saline with Tween-80
[7] = dose: 120.0 mg/kg/injection, schedule: Q01DX005 (ip), vehicle: saline with Tween-80
[8] = dose: 240.0 mg/kg/injection, schedule: Q01DX005 (ip), vehicle: saline with Tween-80
[9] = dose: 100.0 mg/kg/injection, schedule: Q01DX001 (ip), vehicle: saline with Tween-80
[10] = dose: 200.0 mg/kg/injection, schedule: Q01DX001 (ip), vehicle: saline with Tween-80
[11] = dose: 400.0 mg/kg/injection, schedule: Q01DX001 (ip), vehicle: saline with Tween-80
[12] = dose: 25.0 mg/kg/injection, schedule: Q01DX009 (ip), vehicle: water
[13] = dose: 50.0 mg/kg/injection, schedule: Q01DX009 (ip), vehicle: water
[14] = dose: 100.0 mg/kg/injection, schedule: Q01DX009 (ip), vehicle: water
[15] = dose: 200.0 mg/kg/injection, schedule: Q01DX009 (ip), vehicle: water

Measured: T/C

CC(C)(C)c1cc(OS(=O)(=O)C(F)(F)C(F)(F)C(F)(F)C(F)(F)F)cc(C(C)(C)C)c1
inactive: [1] 106 % of control | [2] 108 % of control | [3] 108 % of control

CC(=O)OCC1OC(S[As](C)C)C(OC(C)=O)C(OC(C)=O)C1OC(C)=O (configuration not stated)
inactive: [4] 114 % of control | [1] 111 % of control | [2] 116 % of control | [3] 124 % of control

CCCCOP(=O)(Nc1ccccc1)OCCCC
inactive: [2] 110 % of control | [3] 112 % of control | [5] 110 % of control

CC(CCC(=O)O)(c1ccc(OC(=O)Nc2cccc([N+](=O)[O-])c2)cc1)c1ccc(OC(=O)Nc2cccc([N+](=O)[O-])c2)cc1
inactive: dose: 50.0 mg/kg/injection, schedule: Q01DX005 (ip), vehicle: saline with Tween-80 98 % of control | dose: 100.0 mg/kg/injection, schedule: Q01DX005 (ip), vehicle: saline with Tween-80 91 % of control

O=C1CC2CCC1(CS(=O)(=O)OCCCCOS(=O)(=O)CC13CCC(CC1=O)C3)C2
inactive: [6] 103 % of control | [7] 103 % of control | [8] 93 % of control

COC(=O)c1cc(NC(=O)Oc2ccccn2)cc(C(=O)OC)c1
inactive: dose: 50.0 mg/kg/injection, schedule: Q01DX009 (ip), vehicle: olive oil, sesame oil, peanut oil 98 % of control | dose: 100.0 mg/kg/injection, schedule: Q01DX009 (ip), vehicle: olive oil, sesame oil, peanut oil 97 % of control | dose: 200.0 mg/kg/injection, schedule: Q01DX009 (ip), vehicle: olive oil, sesame oil, peanut oil 99 % of control

Cc1ccc(OP(=O)(Oc2ccc(C)cc2)Oc2ccc(C)cc2)cc1.Cc1ccc(OP(=O)(Oc2ccc(C)cc2)Oc2ccc(C)cc2)cc1.Cc1ccc(OP(=O)(Oc2ccc(C)cc2)Oc2ccc(C)cc2)cc1.Cc1ccc(OP(=O)(Oc2ccc(C)cc2)Oc2cccc(C)c2)cc1.[Cd+2].[O-][Cl+3]([O-])([O-])O
inactive: dose: 12.5 mg/kg/injection, schedule: Q01DX009 (ip), vehicle: Klucel (hydroxypropylcellulose) (HPC) 95 % of control | dose: 25.0 mg/kg/injection, schedule: Q01DX009 (ip), vehicle: Klucel (hydroxypropylcellulose) (HPC) 96 % of control | dose: 50.0 mg/kg/injection, schedule: Q01DX009 (ip), vehicle: Klucel (hydroxypropylcellulose) (HPC) 93 % of control and 96 % of control

CC(/C=C/c1ccccc1)=N\NC(=S)Nc1ccc(Br)cc1
inactive: dose: 100.0 mg/kg/injection, schedule: Q04DX002 (ip), vehicle: Klucel (hydroxypropylcellulose) (HPC) 97 % of control

O=C(NC(Cc1c[nH]c2ccccc12)C(=O)O)c1ccccc1[N+](=O)[O-] (configuration not stated)
inactive: dose: 6.25 mg/kg/injection, schedule: Q01DX005 (ip), vehicle: Klucel (hydroxypropylcellulose) (HPC) 93 % of control | dose: 12.5 mg/kg/injection, schedule: Q01DX005 (ip), vehicle: Klucel (hydroxypropylcellulose) (HPC) 108 % of control | dose: 25.0 mg/kg/injection, schedule: Q01DX005 (ip), vehicle: Klucel (hydroxypropylcellulose) (HPC) 97 % of control

C=C1C(C#N)=C(SC)SC(=S)N1CC
inactive: dose: 50.0 mg/kg/injection, schedule: Q01DX001 (ip), vehicle: saline with Tween-80 95 % of control | [9] 92 % of control | [10] 93 % of control | [11] 95 % of control

COc1ccc(C(C)(O)C2CC2)cc1 (configuration not stated)
inactive: dose: 100.0 mg/kg/injection, schedule: Q01DX001 (ip), vehicle: Klucel (hydroxypropylcellulose) (HPC) 107 % of control | dose: 200.0 mg/kg/injection, schedule: Q01DX001 (ip), vehicle: Klucel (hydroxypropylcellulose) (HPC) 103 % of control | dose: 400.0 mg/kg/injection, schedule: Q01DX001 (ip), vehicle: Klucel (hydroxypropylcellulose) (HPC) 103 % of control

CC(C)(c1ccc(OCC2CO2)cc1)c1ccc(OCC2CO2)cc1 (configuration not stated)
inactive: [4] 103 % of control | [1] 103 % of control and 107 % of control | [2] 103 % of control | [3] 109 % of control | [5] 114 % of control

CCn1c2ccccc2c2cc(N=Nc3cc4cc5ccccc5cc4cc3N)ccc21
inactive: dose: 100.0 mg/kg/injection, schedule: Q04DX003 (ip), vehicle: Klucel (hydroxypropylcellulose) (HPC) 101 % of control | dose: 200.0 mg/kg/injection, schedule: Q04DX003 (ip), vehicle: Klucel (hydroxypropylcellulose) (HPC) 93 % of control

CCC(C)N(CC(C)C)CC(C)(O)CNc1cc(OC)cc2cccnc12 (configuration not stated)
inactive: dose: 12.0 mg/kg/injection, schedule: Q01DX005 (ip), vehicle: saline 100 % of control | dose: 25.0 mg/kg/injection, schedule: Q01DX005 (ip), vehicle: saline 105 % of control | dose: 50.0 mg/kg/injection, schedule: Q01DX005 (ip), vehicle: saline 108 % of control and 96 % of control

O=[N+]([O-])c1ccc(O)c([N+](=O)[O-])c1
inactive: dose: 1.0 mg/kg/injection, schedule: Q01DX005 (ip), vehicle: saline with Tween-80 96 % of control | dose: 2.0 mg/kg/injection, schedule: Q01DX005 (ip), vehicle: saline with Tween-80 108 % of control | dose: 4.0 mg/kg/injection, schedule: Q01DX005 (ip), vehicle: saline with Tween-80 106 % of control | dose: 6.25 mg/kg/injection, schedule: Q01DX009 (ip), vehicle: saline with Tween-80 100 % of control | dose: 8.0 mg/kg/injection, schedule: Q01DX005 (ip), vehicle: saline with Tween-80 104 % of control | dose: 12.5 mg/kg/injection, schedule: Q01DX009 (ip), vehicle: saline with Tween-80 100 % of control | dose: 16.0 mg/kg/injection, schedule: Q01DX005 (ip), vehicle: saline with Tween-80 103 % of control | [4] 90 % of control | dose: 25.0 mg/kg/injection, schedule: Q04DX003 (ip), vehicle: saline with Tween-80 90 % of control | dose: 32.0 mg/kg/injection, schedule: Q01DX005 (ip), vehicle: saline with Tween-80 102 % of control

NC(=S)N/N=C1/C(=O)N(c2ccccc2)C(=O)C1C(=O)Nc1ccccc1 (configuration not stated)
inactive: [9] 100 % of control | [10] 106 % of control | [11] 98 % of control

COC1(c2ccccc2)C(c2ccccc2)=CC(c2ccccc2)=[N+]1[O-] (configuration not stated)
inactive: dose: 50.0 mg/kg/injection, schedule: Q04DX003 (ip), vehicle: saline 95 % of control | dose: 100.0 mg/kg/injection, schedule: Q04DX003 (ip), vehicle: saline 109 % of control | dose: 200.0 mg/kg/injection, schedule: Q04DX003 (ip), vehicle: saline 95 % of control

C1CCN(CN2CCCCC2)CC1
inactive: dose: 50.0 mg/kg/injection, schedule: Q01DX009 (ip), vehicle: saline 104 % of control | dose: 100.0 mg/kg/injection, schedule: Q01DX009 (ip), vehicle: saline 108 % of control

COc1ccc(CSC2=C(C#N)C(=O)NC3(CCCCC3)S2)cc1
inactive: [1] 112 % of control | [2] 95 % of control | [3] 97 % of control

CSC1=CC(=NCc2ccccc2)CC(C)(C)S1
inactive: dose: 15.0 mg/kg/injection, schedule: Q01DX005 (ip), vehicle: Klucel (hydroxypropylcellulose) (HPC) 110 % of control | dose: 30.0 mg/kg/injection, schedule: Q01DX005 (ip), vehicle: Klucel (hydroxypropylcellulose) (HPC) 104 % of control | dose: 60.0 mg/kg/injection, schedule: Q01DX005 (ip), vehicle: Klucel (hydroxypropylcellulose) (HPC) 101 % of control and 105 % of control

CCO/C(=N/S(C)(=O)=O)NO
inactive: dose: 50.0 mg/kg/injection, schedule: Q01DX005 (ip), vehicle: Klucel (hydroxypropylcellulose) (HPC) 102 % of control | dose: 100.0 mg/kg/injection, schedule: Q01DX005 (ip), vehicle: Klucel (hydroxypropylcellulose) (HPC) 106 % of control | dose: 200.0 mg/kg/injection, schedule: Q01DX005 (ip), vehicle: Klucel (hydroxypropylcellulose) (HPC) 102 % of control

C[C@@]12CCCC[C@@H]1N(CCN1CCCCC1)c1ccccc12
inactive: [6] 95 % of control | [7] 105 % of control | [8] 98 % of control

O=C(O)CC[P+](c1ccccc1)(c1ccccc1)c1ccccc1
inactive: [12] 105 % of control | [13] 102 % of control | [14] 105 % of control | [15] 95 % of control | dose: 400.0 mg/kg/injection, schedule: Q01DX009 (ip), vehicle: water 94 % of control

O=NCC(=O)OCc1ccccc1
inactive: dose: 12.5 mg/kg/injection, schedule: Q01DX009 (ip), vehicle: water 95 % of control | [12] 87 % of control | [13] 95 % of control | [14] 99 % of control | [15] 99 % of control
